Data as given in ChEMBL document CHEMBL1201862, “PubChem BioAssay data set” (2004).
Activity calls are given as the source filed them.

Legend:
[1] = biological target: Neuropeptides B/W receptor type 1 (Homo sapiens, UniProt P48145); assay: human NPBW1 receptor blockade, IC50 – cell-based, fluorescence, dose response, set 5, late-stage follow-up (AID 588566); assay type: functional
[2] = biological target: Melanin-concentrating hormone receptor 1 (Homo sapiens, UniProt Q99705); assay: Late-stage fluorescence-based counterscreen for antagonists of the G-protein coupled receptor 7 (GPR7): cell-based dose response assay to identify antagonists of the melanin-concentrating hormone receptor 1 (MCHR1) Set 5.; assay type: functional
Melanin-concentrating hormone receptor 1, sequence (Q99705 whole entry): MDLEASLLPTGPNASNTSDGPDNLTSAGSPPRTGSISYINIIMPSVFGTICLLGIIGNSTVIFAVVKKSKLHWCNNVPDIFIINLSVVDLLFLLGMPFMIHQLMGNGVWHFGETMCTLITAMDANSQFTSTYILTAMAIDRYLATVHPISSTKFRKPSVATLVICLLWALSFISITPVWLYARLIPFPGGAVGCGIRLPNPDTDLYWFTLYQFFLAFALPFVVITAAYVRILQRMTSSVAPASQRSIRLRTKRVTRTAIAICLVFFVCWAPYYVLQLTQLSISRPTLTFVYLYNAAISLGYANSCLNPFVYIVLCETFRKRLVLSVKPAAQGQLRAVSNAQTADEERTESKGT

[3] = biological target: Beta-2 adrenergic receptor (Homo sapiens, UniProt P07550); assay: ADRB2 activation measured by internalization – cell-based, FAP fluorogen, flow cytometry, cherry pick 1, dose response (AID 588763); assay type: functional
Beta-2 adrenergic receptor, sequence (P07550 whole entry, the tested form may be a part): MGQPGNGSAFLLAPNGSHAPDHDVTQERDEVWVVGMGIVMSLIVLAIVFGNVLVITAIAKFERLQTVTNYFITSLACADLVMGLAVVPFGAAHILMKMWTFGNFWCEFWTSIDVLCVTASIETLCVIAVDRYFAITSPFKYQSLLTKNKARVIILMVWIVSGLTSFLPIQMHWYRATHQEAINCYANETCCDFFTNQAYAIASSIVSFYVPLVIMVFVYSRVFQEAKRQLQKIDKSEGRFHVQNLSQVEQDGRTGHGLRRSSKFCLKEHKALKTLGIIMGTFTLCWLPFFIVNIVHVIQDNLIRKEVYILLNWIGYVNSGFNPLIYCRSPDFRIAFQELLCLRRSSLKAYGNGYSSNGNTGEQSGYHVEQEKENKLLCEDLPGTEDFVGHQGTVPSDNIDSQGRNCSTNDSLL

[4] = Fluorescence-based cell-based high throughput dose response assay for inhibitors of the interaction of nucleotide-binding oligomerization domain containing 2 (NOD2) and the receptor-interacting serine-threonine kinase 2 (RIPK2).; assay type: functional; settings: Homo sapiens
Mu-type opioid receptor = Mu-type opioid receptor (Homo sapiens, UniProt P35372); assay type: functional, cell-based;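 note: U2OS cells with beta-arrestin recruitment to OPRM1 by beta-gal complementation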
Mu-type opioid receptor, sequence (P35372 whole entry): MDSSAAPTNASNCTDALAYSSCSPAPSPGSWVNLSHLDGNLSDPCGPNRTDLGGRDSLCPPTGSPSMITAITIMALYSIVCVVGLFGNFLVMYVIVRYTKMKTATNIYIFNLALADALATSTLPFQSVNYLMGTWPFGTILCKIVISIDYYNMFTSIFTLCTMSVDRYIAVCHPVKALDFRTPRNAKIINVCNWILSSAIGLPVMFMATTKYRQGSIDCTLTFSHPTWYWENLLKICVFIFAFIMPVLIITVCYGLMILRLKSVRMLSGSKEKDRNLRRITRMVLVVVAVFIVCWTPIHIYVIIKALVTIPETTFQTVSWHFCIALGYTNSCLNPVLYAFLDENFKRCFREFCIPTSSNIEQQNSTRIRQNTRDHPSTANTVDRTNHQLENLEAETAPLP

[5] = biological target: 5-hydroxytryptamine receptor 2A (Mus musculus, UniProt P35363); assay type: functional, cell-based;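 note: CHO-K1 cells with tagged receptor and beta-arrestin; agonist potency measured as compound-induced activation of the receptor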
5-hydroxytryptamine receptor 2A, sequence (P35363 whole entry): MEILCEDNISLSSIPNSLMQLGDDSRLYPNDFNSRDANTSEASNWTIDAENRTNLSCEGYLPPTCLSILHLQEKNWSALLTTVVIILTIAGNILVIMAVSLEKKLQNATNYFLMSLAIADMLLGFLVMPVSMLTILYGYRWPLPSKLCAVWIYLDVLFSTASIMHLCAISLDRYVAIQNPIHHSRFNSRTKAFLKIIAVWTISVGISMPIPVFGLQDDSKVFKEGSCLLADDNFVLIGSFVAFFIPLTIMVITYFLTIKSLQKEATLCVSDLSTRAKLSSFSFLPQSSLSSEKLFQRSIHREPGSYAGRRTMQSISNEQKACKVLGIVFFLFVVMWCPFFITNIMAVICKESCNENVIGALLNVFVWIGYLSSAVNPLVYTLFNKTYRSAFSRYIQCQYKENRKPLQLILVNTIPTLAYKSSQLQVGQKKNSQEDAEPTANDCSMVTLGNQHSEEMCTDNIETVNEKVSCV

[6] = biological target: ADP-ribosylation factor GTPase-activating protein 1 (Rattus norvegicus, UniProt Q62848); assay: Fluorescence polarization-based biochemical high throughput dose response screening assay to identify inhibitors of ADP-ribosylation factor GTPase activating protein 1 (ARFGAP1).; assay type: functional
ADP-ribosylation factor GTPase-activating protein 1, sequence (Q62848 whole entry, the tested form may be a part): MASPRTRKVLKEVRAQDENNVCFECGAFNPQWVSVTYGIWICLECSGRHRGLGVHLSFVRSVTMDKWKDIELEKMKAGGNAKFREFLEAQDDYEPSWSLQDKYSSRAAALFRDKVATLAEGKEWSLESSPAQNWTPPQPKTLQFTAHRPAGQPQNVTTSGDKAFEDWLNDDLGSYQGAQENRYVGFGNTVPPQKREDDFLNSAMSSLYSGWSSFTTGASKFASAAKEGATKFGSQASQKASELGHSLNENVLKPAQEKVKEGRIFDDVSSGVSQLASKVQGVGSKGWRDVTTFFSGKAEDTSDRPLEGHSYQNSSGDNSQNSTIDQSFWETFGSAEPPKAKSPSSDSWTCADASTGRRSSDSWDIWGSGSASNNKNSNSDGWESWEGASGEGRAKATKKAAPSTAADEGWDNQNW

[7] = biological target: Arf-GAP with SH3 domain, ANK repeat and PH domain-containing protein 1 (Homo sapiens, UniProt Q9ULH1); assay type: functional;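 note: biochemical fluorescence polarization dose–response screen measuring inhibition of ASAP1; ASAP1 GAP domain stimulating GTP hydrolysis by truncated human ARF1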
Arf-GAP with SH3 domain, ANK repeat and PH domain-containing protein 1, sequence (Q9ULH1 whole entry, the tested form may be a part): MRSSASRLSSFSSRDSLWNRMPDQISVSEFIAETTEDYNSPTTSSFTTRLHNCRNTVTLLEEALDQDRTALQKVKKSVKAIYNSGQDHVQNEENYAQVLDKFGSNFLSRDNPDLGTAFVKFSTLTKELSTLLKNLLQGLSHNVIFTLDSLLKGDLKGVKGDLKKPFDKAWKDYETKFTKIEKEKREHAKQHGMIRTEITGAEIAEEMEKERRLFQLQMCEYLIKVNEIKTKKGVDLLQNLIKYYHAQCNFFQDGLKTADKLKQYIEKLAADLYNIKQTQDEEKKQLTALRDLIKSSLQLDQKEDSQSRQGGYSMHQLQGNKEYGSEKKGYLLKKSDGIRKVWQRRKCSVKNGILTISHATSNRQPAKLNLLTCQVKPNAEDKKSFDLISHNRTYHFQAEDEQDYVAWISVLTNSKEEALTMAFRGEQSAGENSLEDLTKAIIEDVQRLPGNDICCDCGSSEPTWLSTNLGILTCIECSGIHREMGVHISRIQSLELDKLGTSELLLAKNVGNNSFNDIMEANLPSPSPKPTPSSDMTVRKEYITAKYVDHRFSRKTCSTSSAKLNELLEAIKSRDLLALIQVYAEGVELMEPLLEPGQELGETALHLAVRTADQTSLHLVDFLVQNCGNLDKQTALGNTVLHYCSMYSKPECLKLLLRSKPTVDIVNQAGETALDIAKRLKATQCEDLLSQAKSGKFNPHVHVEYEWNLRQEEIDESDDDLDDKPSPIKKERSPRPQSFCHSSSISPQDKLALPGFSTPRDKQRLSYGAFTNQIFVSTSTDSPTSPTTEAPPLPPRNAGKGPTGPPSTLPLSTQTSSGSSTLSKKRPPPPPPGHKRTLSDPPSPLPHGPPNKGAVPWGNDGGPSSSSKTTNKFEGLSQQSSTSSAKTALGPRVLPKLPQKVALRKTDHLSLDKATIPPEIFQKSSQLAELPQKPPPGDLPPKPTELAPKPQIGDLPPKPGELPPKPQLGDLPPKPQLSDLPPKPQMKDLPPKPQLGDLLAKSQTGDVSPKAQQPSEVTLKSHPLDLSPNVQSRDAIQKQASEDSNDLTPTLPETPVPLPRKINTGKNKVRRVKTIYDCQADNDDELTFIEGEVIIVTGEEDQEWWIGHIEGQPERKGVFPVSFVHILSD

[8] = biological target: T1, Small ubiquitin-related modifier 1 (Homo sapiens, UniProt P63165); assay: SUMO1 protein interaction blockers, potency – biochemical, fluorescence polarization, uHTS hits, dose response (AID 624382); assay type: functional; settings: read-out: IC50_Mean
T1 sequence (P63165 whole entry): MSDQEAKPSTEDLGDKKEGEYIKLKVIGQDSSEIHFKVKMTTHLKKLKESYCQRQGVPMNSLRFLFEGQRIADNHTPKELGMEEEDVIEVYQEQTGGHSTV

[9] = biological target: T1, Small ubiquitin-related modifier 1; assay: SUMO1 protein-protein binding blockers, potency – biochemical, FRET, dose response (AID 624383); assay type: functional; settings: read-out: IC50_Mean
[10] = biological target: Nuclear receptor subfamily 5 group A member 2 (Homo sapiens, UniProt O00482); assay type: functional, cell-based;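 note: HEK293T cells transfected with LRH-1 and a StAR promoter luciferase reporter; potency for inhibitors that lower LRH-1 driven reporter light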
Nuclear receptor subfamily 5 group A member 2, sequence (O00482 whole entry): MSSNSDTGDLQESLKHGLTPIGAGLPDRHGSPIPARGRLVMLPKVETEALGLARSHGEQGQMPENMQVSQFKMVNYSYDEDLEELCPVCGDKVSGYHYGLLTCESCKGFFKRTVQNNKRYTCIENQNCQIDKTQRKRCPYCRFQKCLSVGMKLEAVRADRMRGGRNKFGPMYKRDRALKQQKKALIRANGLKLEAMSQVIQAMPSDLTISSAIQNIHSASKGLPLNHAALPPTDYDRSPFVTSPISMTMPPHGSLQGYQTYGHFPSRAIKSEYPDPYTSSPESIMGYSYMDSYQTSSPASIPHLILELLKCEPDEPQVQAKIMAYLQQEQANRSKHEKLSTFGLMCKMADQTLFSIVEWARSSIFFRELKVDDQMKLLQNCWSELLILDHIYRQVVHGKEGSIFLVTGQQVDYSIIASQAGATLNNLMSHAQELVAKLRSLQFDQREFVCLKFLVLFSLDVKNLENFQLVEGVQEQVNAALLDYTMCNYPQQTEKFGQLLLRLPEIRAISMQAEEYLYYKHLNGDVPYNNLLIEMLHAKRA

Steroidogenic factor 1 = Steroidogenic factor 1 (Homo sapiens, UniProt Q13285); assay: Counterscreen for inverse agonists of the liver receptor homolog-1 (LRH-1; NR5A2): Luminescence-based cell-based high throughput dose response assay to identify inverse agonists of the Steroidogenic Factor 1 Nuclear Receptor (SF1; NR5A1).; assay type: functional
Steroidogenic factor 1, sequence (Q13285 whole entry): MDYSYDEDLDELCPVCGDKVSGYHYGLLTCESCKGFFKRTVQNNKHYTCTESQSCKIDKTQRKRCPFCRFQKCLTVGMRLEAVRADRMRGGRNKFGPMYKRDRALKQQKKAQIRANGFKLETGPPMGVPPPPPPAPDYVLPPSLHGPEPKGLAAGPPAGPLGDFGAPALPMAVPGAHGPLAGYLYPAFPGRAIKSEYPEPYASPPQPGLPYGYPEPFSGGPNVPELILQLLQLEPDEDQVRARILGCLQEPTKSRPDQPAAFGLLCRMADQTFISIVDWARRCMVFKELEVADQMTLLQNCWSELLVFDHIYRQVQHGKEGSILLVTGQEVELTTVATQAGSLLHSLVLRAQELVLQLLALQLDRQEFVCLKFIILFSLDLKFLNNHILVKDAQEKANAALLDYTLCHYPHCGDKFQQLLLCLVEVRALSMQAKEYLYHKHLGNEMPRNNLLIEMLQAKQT

[11] = nonselective StAR promoter luciferase inhibitors – cell-based, luminescence, luciferase reporter, counter-screen for LRH-1 inverse agonist project, dose response (AID 651969); assay type: functional
[12] = biological target: T2, Apoptotic protease-activating factor 1 (Homo sapiens, UniProt O14727); assay: SAR analysis of small molecule Activators of Apaf-1 in a Fluorescent assay.; assay type: functional; settings: read-out: EC50_Mean;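 note: caspase-3 cleavage of fluorogenic Rh110 DEVD substrate downstream of apoptosome activation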
T2 sequence (O14727 whole entry): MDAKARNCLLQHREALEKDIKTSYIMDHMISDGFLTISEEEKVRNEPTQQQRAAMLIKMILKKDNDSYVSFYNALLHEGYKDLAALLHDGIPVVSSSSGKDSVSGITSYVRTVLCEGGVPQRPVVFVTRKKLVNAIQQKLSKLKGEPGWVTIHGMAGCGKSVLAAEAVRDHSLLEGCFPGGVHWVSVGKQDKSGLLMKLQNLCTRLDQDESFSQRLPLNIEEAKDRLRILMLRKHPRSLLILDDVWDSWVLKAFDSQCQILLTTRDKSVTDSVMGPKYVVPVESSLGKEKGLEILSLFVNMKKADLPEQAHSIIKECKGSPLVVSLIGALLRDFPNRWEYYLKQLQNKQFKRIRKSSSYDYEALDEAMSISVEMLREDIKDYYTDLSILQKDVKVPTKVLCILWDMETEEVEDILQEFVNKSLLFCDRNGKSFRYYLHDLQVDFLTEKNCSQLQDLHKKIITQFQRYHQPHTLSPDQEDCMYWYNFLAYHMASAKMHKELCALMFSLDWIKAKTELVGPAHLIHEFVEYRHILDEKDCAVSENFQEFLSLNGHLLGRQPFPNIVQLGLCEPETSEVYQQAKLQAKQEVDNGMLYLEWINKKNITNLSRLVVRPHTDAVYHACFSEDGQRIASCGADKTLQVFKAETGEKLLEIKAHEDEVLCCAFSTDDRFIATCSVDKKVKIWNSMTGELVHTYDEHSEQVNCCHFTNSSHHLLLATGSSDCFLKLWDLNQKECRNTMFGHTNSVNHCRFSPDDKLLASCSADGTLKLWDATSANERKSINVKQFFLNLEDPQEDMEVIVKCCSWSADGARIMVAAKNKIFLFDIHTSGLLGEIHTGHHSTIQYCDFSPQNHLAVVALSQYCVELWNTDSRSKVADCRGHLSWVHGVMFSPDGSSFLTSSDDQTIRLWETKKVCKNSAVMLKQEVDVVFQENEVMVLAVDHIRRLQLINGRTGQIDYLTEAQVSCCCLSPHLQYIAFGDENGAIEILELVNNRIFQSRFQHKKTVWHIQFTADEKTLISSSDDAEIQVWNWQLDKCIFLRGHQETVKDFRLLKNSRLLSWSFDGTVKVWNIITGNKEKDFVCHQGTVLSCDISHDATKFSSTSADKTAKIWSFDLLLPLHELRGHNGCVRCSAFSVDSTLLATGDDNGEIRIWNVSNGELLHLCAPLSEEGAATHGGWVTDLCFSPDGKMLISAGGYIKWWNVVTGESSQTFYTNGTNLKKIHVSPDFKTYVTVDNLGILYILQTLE

Neuropeptides B/W receptor type 1, sequence (P48145 whole entry): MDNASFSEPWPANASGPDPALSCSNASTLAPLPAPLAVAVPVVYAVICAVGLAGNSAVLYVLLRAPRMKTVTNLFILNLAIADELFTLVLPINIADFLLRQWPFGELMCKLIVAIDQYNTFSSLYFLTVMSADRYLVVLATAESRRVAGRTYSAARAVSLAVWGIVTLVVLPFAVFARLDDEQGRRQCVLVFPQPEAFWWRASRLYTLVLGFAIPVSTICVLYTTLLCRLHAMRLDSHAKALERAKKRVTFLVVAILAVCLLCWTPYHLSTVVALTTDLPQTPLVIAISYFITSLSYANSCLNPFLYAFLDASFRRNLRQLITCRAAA

For `O=c1c(Oc2ccc3c(c2)OCO3)c(Cl)cnn1C1c2ccccc2-c2ccccc21`, the IC50 [1] was > 20 µM (inactive) and the IC50 [2] was > 20 µM (inactive).

For `COc1ccc(Oc2c(Cl)cnn(CC(=O)N(C3CCCCC3)C3CCCCC3)c2=O)cc1`, the IC50 [1] was 15.7 µM (inactive) and the IC50 [2] was > 20 µM (inactive).

For `N#Cc1cccc(NC(=O)COC(=O)c2ccccc2C(=O)c2ccc(Cl)c([N+](=O)[O-])c2)c1`, the EC50 [3] was 5.27 µM (inactive) and the IC50 [4] was 1.99 µM (active).

For `CCOC(=O)N1CCC(N2CCCC(C(=O)c3ccccc3OC)C2)CC1` (stereo unspecified), the EC50 (Mu-type opioid receptor) was 92.5 µM (inactive) and the EC50 [5] was 41.2 µM (inactive).

In the case of `CN(Cc1ccccc1F)C(=O)CN1c2cccc3cccc(c23)S1(=O)=O`, the IC50 [6] is reported as 47.1 µM (inactive) and the IC50 [7] is reported as 41 µM (inactive).

In the case of `O=C(NCc1ccccn1)c1ccc2c(=O)n3nc(Nc4ccccc4)sc3nc2c1`, the IC50 [8] is reported as > 66.6 µM (inactive) and the IC50 [9] is reported as 8.94 µM (active).

With `COc1ccc(CCNC(=O)CSc2nc3nc(O)cc(O)c3s2)cc1` the IC50 [10] was 97.8 µM (inactive), the IC50 (Steroidogenic factor 1) was 6.9 µM (active) and the IC50 [11] was 35.9 µM (inactive).

With `CO[C@@H]1CS(=O)(=O)C2C(c3ccc(F)cc3)=NOC21` (stereo partly specified) the EC50 [12] was > 100 µM (inactive).
